Values quoted from earlier work in patent publication US20230398127A1, “USE OF COMBINED ORAL CONTRACEPTIVES CONTAINING NOMEGESTROL ACETATE AND ESTRADIOL” (THERAMEX HQ UK LIMITED, priority 2020, published 2023).

Biological target: T1, progesterone receptor (Homo sapiens, UniProt P06401)
T1 sequence (P06401 1-933): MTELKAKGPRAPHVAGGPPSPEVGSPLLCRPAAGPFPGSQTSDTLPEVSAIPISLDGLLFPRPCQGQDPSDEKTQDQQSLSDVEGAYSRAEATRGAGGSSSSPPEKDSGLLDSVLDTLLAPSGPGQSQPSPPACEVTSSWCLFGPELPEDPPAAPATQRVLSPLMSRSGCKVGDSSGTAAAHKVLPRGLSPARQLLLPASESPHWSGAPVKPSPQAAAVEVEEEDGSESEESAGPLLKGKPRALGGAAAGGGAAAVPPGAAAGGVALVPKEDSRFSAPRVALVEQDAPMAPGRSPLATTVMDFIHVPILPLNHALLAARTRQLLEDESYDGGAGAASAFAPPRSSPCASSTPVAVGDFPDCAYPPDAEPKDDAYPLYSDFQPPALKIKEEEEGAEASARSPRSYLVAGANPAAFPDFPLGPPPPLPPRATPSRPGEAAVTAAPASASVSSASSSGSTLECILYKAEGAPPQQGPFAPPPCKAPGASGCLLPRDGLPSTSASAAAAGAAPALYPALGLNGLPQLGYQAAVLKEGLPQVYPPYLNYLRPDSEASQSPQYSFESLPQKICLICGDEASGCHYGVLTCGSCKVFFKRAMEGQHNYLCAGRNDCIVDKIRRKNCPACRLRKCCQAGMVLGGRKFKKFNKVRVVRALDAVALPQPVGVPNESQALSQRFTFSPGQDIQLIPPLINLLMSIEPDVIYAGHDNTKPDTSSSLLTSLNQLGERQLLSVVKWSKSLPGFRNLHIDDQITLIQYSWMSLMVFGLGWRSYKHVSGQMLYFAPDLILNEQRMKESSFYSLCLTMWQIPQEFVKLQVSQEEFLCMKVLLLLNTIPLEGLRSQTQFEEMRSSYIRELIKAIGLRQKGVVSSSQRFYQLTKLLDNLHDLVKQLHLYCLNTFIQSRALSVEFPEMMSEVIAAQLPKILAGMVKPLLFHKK

**Q.** With `CC(=O)O[C@]1(C(C)=O)CC[C@H]2[C@@H]3C=C(C)C4=CC(=O)CC[C@@H]4[C@H]3CC[C@@]21C` [nomegestrol acetate, 17α-acetoxy-6-methyl-19-norpregna-4,6-diene-3,20-dione] as the compound, how does the “Affinity for the progesterone receptor” value read?
**A.** Its value is “strong”.
